Assay results from patent US20240150321A1, “PYRAZOLYLSULFONAMIDE COMPOUNDS AND THEIR USE IN THERAPY” (HOTSPOT THERAPEUTICS, INC., priority 2022, published 2024).

Tests used:
[1] = test system: NF-kB reporter in Jurkat cells; assay: NF-kB reporter assay in Jurkat cells stimulated with aCD3/aCD28/PMA; format: cell-based; conditions: Homo sapiens; Jurkat cells, 1 hr compound pre-incubation, aCD3/aCD28/PMA stimulation 4 hr, One-Glo readout; read-out: NF-kB Reporter Assay IC50
Description: Jurkat cells were maintained in complete RPMI 1640 media supplemented with 10% FBS. Prior to the assay, 120 nL of the serial diluted compound was added in each well of 384-well flat bottom white plate (Corning #3570) by using liquid handler Echo550. Jurkat cells were harvested by centrifugation at 120 g for 10 min and resuspended in fresh RPMI 1640 media without serum. […] (25,000 cells) were seeded in each well of 384-well plate containing compound. After 1 hr incubation at 37° C. in a 5% CO2 incubator, […] of diluted aCD3/aCD28/PMA (final concentration at […] and […], respectively) in RPMI 1640 without serum were added to each well. After incubation at 37° C. in 5% CO2 for 4 hr, […] of One-Glo reagent (Promega #E6120) was added into each well. The plate was left at room temperature for 5 min and the signal was measured on EnVision (PerkinElmer).
Compounds in which an IC50 was not measured are designated as “N/A”.

Avi-tagged FL MALT-1 = Avi-tagged FL MALT-1 (Homo sapiens (Human), UniProt Q9UDY8); assay: MALT-1 Fluorogenic Peptide Cleavage Assay (MALT1 inhibition assay); format: biochemical; conditions: Ac-LRSR-AMC peptide substrate, 30 min pre-incubation, 90 min reaction at room temperature
Avi-tagged FL MALT-1, sequence (Q9UDY8 whole entry): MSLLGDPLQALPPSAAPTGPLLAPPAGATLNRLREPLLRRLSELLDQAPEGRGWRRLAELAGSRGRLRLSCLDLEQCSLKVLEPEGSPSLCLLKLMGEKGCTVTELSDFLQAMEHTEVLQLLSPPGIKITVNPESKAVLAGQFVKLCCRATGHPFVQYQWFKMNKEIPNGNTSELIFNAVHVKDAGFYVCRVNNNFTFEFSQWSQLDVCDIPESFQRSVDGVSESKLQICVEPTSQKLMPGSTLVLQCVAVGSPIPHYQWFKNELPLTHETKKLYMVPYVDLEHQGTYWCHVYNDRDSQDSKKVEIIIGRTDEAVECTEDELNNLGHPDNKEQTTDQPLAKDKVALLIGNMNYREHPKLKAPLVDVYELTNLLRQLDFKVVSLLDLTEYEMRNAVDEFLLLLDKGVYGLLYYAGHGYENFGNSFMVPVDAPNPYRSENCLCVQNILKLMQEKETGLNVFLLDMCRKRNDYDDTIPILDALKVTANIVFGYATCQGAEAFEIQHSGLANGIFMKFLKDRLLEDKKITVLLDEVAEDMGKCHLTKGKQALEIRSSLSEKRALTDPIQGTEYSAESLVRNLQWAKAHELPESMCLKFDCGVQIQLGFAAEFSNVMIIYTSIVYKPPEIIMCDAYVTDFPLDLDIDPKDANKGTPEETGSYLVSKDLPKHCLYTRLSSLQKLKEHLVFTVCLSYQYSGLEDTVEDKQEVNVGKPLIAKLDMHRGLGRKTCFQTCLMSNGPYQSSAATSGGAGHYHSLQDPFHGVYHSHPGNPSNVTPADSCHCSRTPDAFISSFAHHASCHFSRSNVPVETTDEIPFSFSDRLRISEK
Description: Inhibition of MALT1 activity by the presence of small molecules was evaluated using MALT-1 Fluorogenic Peptide Cleavage Assay. The assay utilizes a quenched AMC-labelled peptide that contains the MALT-1 recognition sequence and cleavage site (LRSR). MALT-1 mediated cleavage of the peptide relieves the quenching and leads to an increase in fluorescence at excitation (342 nm) and emission (441 nm).
The following reagents were obtained commercially and used to prepare standard reagent formulations as further described below: N-2-hydroxyethylpiperazine-N-2-ethane sulfonic acid (HEPES) (1 M, pH 7.5, stored at 4° C.), sodium citrate (stored at RT), tris(2-carboxyethyl) phosphine hydrochloride (T-CEP) (500 mM, stored at −20° C.), ethylenediaminetetraacetic acid (EDTA) (500 mM, stored at RT), dimethylsulfoxide (DMSO, stored at RT), 3-[(3-cholamido-propyl)dimethylammonio]-1-propane sulphate (CHAPS) (stored at RT), dimethylsulfoxide (DMSO), DMSO (Fisher Scientific, stored at RT), Avi-tagged FL MALT-1 (Pharmaron, stored at −70° C.), Ac-LRSR-AMC Peptide (SM Biochemicals, stored at −20° C.)., and ultrapure water (MILLLI-Q©).
The standard reagent formulations used in this assay were prepared and stored as follows. A 1.1 M solution of sodium citrate (161.3 g, 500 mL) was prepared and stored at room temperature. A 10% (w/v) CHAPS solution (2.0 g, 20 mL) was prepared and stored at 4° C. A 500 mM HEPES solution having pH of 6.89 was prepared from 200 mL of a 1 M HEPES solution having a pH of 7.5 using concentrated hydrochloric acid and brought to a final volume of 400 mL with MILLI-Q© H2O. The substrate, 10 mM Ac-LRSR-AMC Peptide, was prepared (10 mg, 1.370 mL DMSO) and stored at −20° C.
Compounds were plated to provide a 2% DMSO final concentration using a ProxiPlate-384 Plus F Black 384-shallow well microplate. The assay-ready plates were equilibrated to room temperature. A reaction buffer (30 mL total volume) was prepared by combining HEPES (pH 6.89, 25 mM, 1.5 mL), sodium citrate (660 mM, 18.0 mL), T-CEP (1 mM, 0.06 mL), EDTA ([…], 0.06 mL), CHAPS (0.05%, 0.15 mL), DMSO (2%, 0.6 mL), and MILLI-Q© H2O (10.23 mL; 9.63 mL when backfilled to 2% DMSO) followed by thorough mixing. DMSO was added only when compound plates had not been DMSO-backfilled to 2%.
MALT-1 was thawed and kept on ice. Peptide substrate was thawed on the bench under ambient conditions. A MALT-1 enzyme working stock was prepared from Avi-tagged FL MALT-1 (40 nM in a prepared reagent volume of 16.5 μL) and the reaction buffer (13.0 mL). MALT1 working stock (5 μL) was added to each well of the microplate. MALT-1 was pre-incubated with compounds for 30 minutes at room temperature.
Two substrate working stocks (Km and 10×Km) were prepared. The 1×Km substrate was prepared from Ac-LRSR-AMC Peptide (50 μM in a prepared reagent volume of 35.0 μL) and the reaction buffer (6.965 mL). The 10×Km substrate was prepared from Ac-LRSR-AMC Peptide (280 μM in a prepared reagent volume of 196.0 μL) and the reaction buffer (6.804 mL). The reaction was initiated by the addition of substrate working stock (5 μL, 50 μM) to Km plates and the addition of substrate working stock (5 μL 280 μM) to 10×Km plates. The plates were covered and incubated on the bench at room temperature for 90 minutes.
Fluorescence intensity was determined using a CLARIOstar microplate reader (BMG LABTECH) using the optimised AMC mode. Before taking readings, a 70% gain was applied on the neutral control well. Compound data were normalised to % Inhibition and used to plot sigmoidal concentration response curves to yield various parameters including IC50.

| Compound | IC50 [1] [nM] | IC50 (Avi-tagged FL MALT-1) [nM] |
| --- | --- | --- |
| COc1ccc2cnn(C)c2c1NS(=O)(=O)c1cnn(-c2cncc(C(F)(F)F)c2)c1 [Compound I-23, N-(6-Methoxy-1-Methyl-1H-Indazol-7-yl)-1-(5-(Trifluoromethyl)Pyridin-3-yl)-1H-Pyrazole-4-Sulfonamide] | < 400 | ≤ 400 |
| COc1ccc2cnn(C)c2c1NS(=O)(=O)c1cnn(-c2cc(C(F)(F)F)ncn2)c1 [Compound I-24, N-(6-Methoxy-1-Methyl-1H-Indazol-7-yl)-1-(6-(Trifluoromethyl)Pyrimidin-4-yl)-1H-Pyrazole-4-Sulfonamid] | 400 to 1000 | 400 to 1000 |
| COc1ccc2cnn(C)c2c1N(C)S(=O)(=O)c1cnn(-c2ccnc(C(F)(F)F)c2)c1 [Compound I-25, N-(6-Methoxy-1-Methyl-1H-Indazol-7-yl)-N-methyl-1-(2-(Trifluoromethyl)Pyridin-4-yl)-1H-Pyrazole-4-Sulfonamide] | < 400 | ≤ 400 |
| CCN(c1c(OC)ccc2cnn(C)c12)S(=O)(=O)c1cnn(-c2ccnc(C(F)(F)F)c2)c1 [Compound I-26, N-(6-Methoxy-1-Methyl-1H-Indazol-7-yl)-N-Ethyl-1-(2-(Trifluoromethyl)Pyridin-4-yl)-1H-Pyrazole-4-Sulfonamide] | < 400 | ≤ 400 |
| CCc1ccc2cnn(C)c2c1NS(=O)(=O)c1cn(-c2ccnc(C(F)(F)F)c2)nn1 [Compound I-27, N-(6-Ethyl-1-Methyl-1H-Indazol-7-yl)-1-(2-(Trifluoromethyl) Pyridin-4-yl)-1H-1,2,3-Triazole-4-Sulfonamide] | > 2500 | 400 to 1000 |
| CCc1ccc2cnn(C)c2c1NS(=O)(=O)c1cnn(-c2ccnc(C(F)(F)F)c2)n1 [Compound I-28, N-(6-Ethyl-1-Methyl-1H-Indazol-7-yl)-2-(2-(Trifluoromethyl) Pyridin-4-yl)-2H-1,2,3-Triazole-4-Sulfonamide] | 400 to 1000 | ≤ 400 |
| CCc1ccc2cnn(C)c2c1NS(=O)(=O)c1cn(-c2ccnc(C(F)(F)F)c2)nc1C [Compound I-29, N-(6-Ethyl-1-Methyl-1H-Indazol-7-yl)-3-Methyl-1-(2-(Trifluoromethyl)Pyridin-4-yl)-1H-Pyrazole-4-Sulfonamide] | 400 to 1000 | ≤ 400 |
| CCc1ccc2cnn(C)c2c1NS(=O)(=O)c1cnn(-c2ccnc(C(F)(F)F)c2)c1C [Compound I-30, N-(6-Ethyl-1-Methyl-1H-Indazol-7-yl)-5-Methyl-1-(2-(Trifluoromethyl)Pyridin-4-yl)-1H-Pyrazole-4-Sulfonamide] | 1000 to 2500 | 400 to 1000 |
| CCc1ccc2cnn(C)c2c1NS(=O)(=O)c1cnn(-c2ccnc(C)c2)c1 [Compound I-31, N-(6-Ethyl-1-Methyl-1H-Indazol-7-yl)-1-(2-Methylpyridin-4-yl)-1H-Pyrazole-4-Sulfonamide] | 400 to 1000 | ≤ 400 |
| CCc1ccc2cnn(C)c2c1NS(=O)(=O)c1cnn(-c2cc(C)nc(C)c2)c1 [Compound I-32, 1-(2,6-Dimethylpyridin-4-yl)-N-(6-ethyl-1-Methyl-1H-Indazol-7-yl)-1H-Pyrazole-4-Sulfonamide] | 400 to 1000 | ≤ 400 |
| CCc1ccc2cnn(C)c2c1NS(=O)(=O)c1cnn(-c2ccnc(C3CC3)c2)c1 [Compound I-33, 1-(2-Cyclopropylpyridin-4-yl)-N-(6-ethyl-1-Methyl-1H-Indazol-7-yl)-1H-Pyrazole-4-Sulfonamide] | < 400 | ≤ 400 |
| CCc1ccc2cnn(C)c2c1NS(=O)(=O)c1cnn(-c2cc(C)ccn2)c1 [Compound I-34, N-(6-Ethyl-1-Methyl-1H-Indazol-7-yl)-1-(4-Methylpyridin-2-yl)-1H-Pyrazole-4-Sulfonamide] | < 400 | ≤ 400 |
| COc1ccc2cnn(C)c2c1NS(=O)(=O)c1cnn(-c2cc(C)ccn2)c1 [Compound I-35, N-(6-Methoxy-1-Methyl-1H-Indazol-7-yl)-1-(4-Methylpyridin-2-yl)-1H-Pyrazole-4-Sulfonamide] | < 400 | ≤ 400 |
| CCc1ccc2cnn(C)c2c1NS(=O)(=O)c1cnn(-c2cc(Cl)ccn2)c1 [Compound I-36, 1-(4-Chloropyridin-2-yl)-N-(6-Ethyl-1-Methyl-1H-indazol-7-yl)-1H-Pyrazole-4-Sulfonamide] | < 400 | ≤ 400 |
| CCc1ccc2cnn(C)c2c1NS(=O)(=O)c1cnn(-c2ccnc(Cl)c2)c1 [Compound I-37, 1-(2-Chloropyridin-4-yl)-N-(6-Ethyl-1-Methyl-1H-Indazol-7-yl)-1H-Pyrazole-4-Sulfonamide] | < 400 | ≤ 400 |
| CCCc1ccc2cnn(C)c2c1NS(=O)(=O)c1cnn(-c2ccnc(C(F)(F)F)c2)c1 [Compound I-38, N-(1-Methyl-6-Propyl-1H-Indazol-7-yl)-1-(2-(Trifluoromethyl) Pyridin-4-yl)-1H-Pyrazole-4-Sulfonamide] | < 400 | ≤ 400 |
| CCc1ccc2[nH]nc(C)c2c1NS(=O)(=O)c1cnn(-c2ccnc(C(F)(F)F)c2)c1 [Compound I-39, N-(5-Ethyl-3-Methyl-1H-Indazol-4-yl)-1-(2-(Trifluoromethyl) Pyridin-4-yl)-1H-Pyrazole-4-Sulfonamide] | < 400 | ≤ 400 |
| CCc1ccc2c(c(C)nn2C)c1NS(=O)(=O)c1cnn(-c2ccnc(C(F)(F)F)c2)c1 [Compound I-40, N-(5-ethyl-1,3-dimethyl-1H-Indazol-4-yl)-1-(2-(Trifluoromethyl)Pyridin-4-yl)-1H-Pyrazole-4-Sulfonamide] | 400 to 1000 | ≤ 400 |
| CCc1ccc2cnn(C)c2c1NS(=O)(=O)c1cnn(-c2ccnc(N(C)C)c2)c1 [Compound I-41, 1-(2-(Dimethylamino)Pyridin-4-yl)-N-(6-ethyl-1-Methyl-1H-Indazol-7-yl)-1H-Pyrazole-4-Sulfonamide] | < 400 | ≤ 400 |
| CCc1ccc2cnn(C)c2c1NS(=O)(=O)c1cnn(-c2ccc(OC)cn2)c1 [Compound I-42, N-(6-Ethyl-1-Methyl-1H-Indazol-7-yl)-1-(5-Methoxypyridin-2-yl)-1H-Pyrazole-4-Sulfonamide] | 400 to 1000 | 400 to 1000 |
| CCc1ccc2cnn(C)c2c1NS(=O)(=O)c1cnn(-c2cc(OC(F)(F)F)ccn2)c1 [Compound I-43, N-(6-Ethyl-1-Methyl-1H-Indazol-7-yl)-1-(4-(Trifluoromethoxy) Pyridin-2-yl)-1H-Pyrazole-4-Sulfonamide] | > 2500 | > 2500 |
